Data on four molecules can be found in patent US20080194482A1, “Selective Apac2 Receptor Peptide Agonists” (priority 2005, published 2008).

The target in one series is T1, rat VPAC2 receptor (Rattus norvegicus, UniProt P35000).
T1 construct: expressed in transfected cells; host or cells: CHO-PO (transient, Lipofectamine)
T1 sequence (P35000 23-437): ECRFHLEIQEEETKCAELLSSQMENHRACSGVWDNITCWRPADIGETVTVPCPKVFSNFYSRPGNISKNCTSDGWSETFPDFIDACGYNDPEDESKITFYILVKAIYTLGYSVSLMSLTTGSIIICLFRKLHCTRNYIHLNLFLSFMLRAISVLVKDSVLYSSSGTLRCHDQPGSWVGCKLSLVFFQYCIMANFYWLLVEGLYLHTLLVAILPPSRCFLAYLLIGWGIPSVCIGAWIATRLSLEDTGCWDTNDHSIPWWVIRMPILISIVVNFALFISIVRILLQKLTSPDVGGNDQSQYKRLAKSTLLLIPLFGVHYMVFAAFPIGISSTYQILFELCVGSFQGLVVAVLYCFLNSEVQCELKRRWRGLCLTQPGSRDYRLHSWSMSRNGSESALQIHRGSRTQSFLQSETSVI
Description: DiscoveRx cAMP assay, in vitro potency at rat VPAC2 receptor. The format is cell-based. The settings on record: CHO-PO cells transiently transfected with rat VPAC2; cAMP generation; mean of two independent runs. The method, then:
DiscoveRx: CHO-PO cells are transiently transfected with rat VPAC1 or VPAC2 receptor DNA using commercially available transfection reagents (Lipofectamine from Invitrogen). The cells are seeded at a density of 10,000/well in a 96-well plate and are allowed to grow for 3 days in […] culture medium. At day 3, the assay is performed.
On the day of the experiment, the medium is removed. Also, the cells are washed twice. The cells are incubated in assay buffer plus IBMX for 15 minutes at room temperature. Afterwards, the stimuli are added and are dissolved in assay buffer. The stimuli are present for 30 minutes. Then, the assay buffer is gently removed. The cell lysis reagent of the DiscoveRx cAMP kit is added. Thereafter, the standard protocol for developing the cAMP signal as described by the manufacturer is used (DiscoveRx Inc., USA). EC50 values for cAMP generation are calculated from the raw signal or are based on absolute cAMP levels as determined by a standard curve performed on each plate.
Results for each agonist are the mean of two independent runs. Rat VPAC1 and VPAC2 results are only generated using the DiscoveRx assay.
For orientation: Changes in cAMP serve as a functional read-out for many G protein-coupled receptors.

For another series, the target named is T2, human VPAC1 (Homo sapiens, UniProt P32241).
T2 construct: expressed in transfected cells
T2 sequence (P32241 31-457): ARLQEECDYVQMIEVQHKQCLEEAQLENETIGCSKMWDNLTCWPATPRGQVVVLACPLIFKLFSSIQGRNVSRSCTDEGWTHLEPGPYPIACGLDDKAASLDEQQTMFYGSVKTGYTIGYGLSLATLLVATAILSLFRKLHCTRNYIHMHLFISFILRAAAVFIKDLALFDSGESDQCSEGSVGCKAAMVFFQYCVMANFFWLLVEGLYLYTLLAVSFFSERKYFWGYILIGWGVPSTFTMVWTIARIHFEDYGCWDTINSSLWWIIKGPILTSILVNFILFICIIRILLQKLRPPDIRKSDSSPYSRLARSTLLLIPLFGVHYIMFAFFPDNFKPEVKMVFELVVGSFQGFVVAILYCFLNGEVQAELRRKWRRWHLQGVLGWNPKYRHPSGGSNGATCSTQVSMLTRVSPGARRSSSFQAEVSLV
Description: Filter binding assay, 125I-labeled VIP tracer, VPAC1 membranes. The settings on record: read-out: Human VPAC1 Receptor Binding (IC50; nM).

Series [1] in a line: Rat serum stability (activity remaining, CHO-VPAC2 DiscoveRx read-out). The format is in vitro ADME. In a few lines: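 Peptides preincubated overnight in rat serum at 37 °C without aprotinin versus 4 °C with aprotinin, then tested as 11-point 5× dilutions in duplicate on CHO-VPAC2 cells, 30 min at RT. cAMP measured by DiscoveRx kit against standards; EC50 derived for each aliquot.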

For series [2], the target named is T3, human VPAC2 (Homo sapiens, UniProt P41587).
T3 construct: expressed in transfected cells
T3 sequence (P41587 24-438): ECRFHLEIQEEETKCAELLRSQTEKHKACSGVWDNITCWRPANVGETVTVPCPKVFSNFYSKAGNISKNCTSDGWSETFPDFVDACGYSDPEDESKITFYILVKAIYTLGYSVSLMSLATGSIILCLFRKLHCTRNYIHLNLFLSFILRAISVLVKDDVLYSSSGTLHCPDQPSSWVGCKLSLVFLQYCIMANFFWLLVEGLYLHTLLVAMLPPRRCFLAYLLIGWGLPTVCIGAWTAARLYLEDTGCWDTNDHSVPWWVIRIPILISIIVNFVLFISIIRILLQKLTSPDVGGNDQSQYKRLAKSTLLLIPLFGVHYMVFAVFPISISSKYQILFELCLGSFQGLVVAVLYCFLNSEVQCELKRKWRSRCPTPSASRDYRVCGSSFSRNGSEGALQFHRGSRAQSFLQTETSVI
Briefly: Alpha screen cAMP assay, in vitro potency at human VPAC2 receptor. As to conditions: cAMP generation; single result from two analyses in a single run, some values average of more than one experiment. The series is classed as cell-based.
Description: Alpha screen: Cells are washed in the culture flask once with PBS. Then, the cells are rinsed with enzyme free dissociation buffer. The dissociated cells are removed. The cells are then spun down and washed in stimulation buffer. For each data point, 50,000 cells suspended in stimulation buffer are used. To this buffer, Alpha screen acceptor beads are added along with the stimuli. This mixture is incubated for 60 minutes. Lysis buffer and Alpha screen donor beads are added and are incubated for 60 to 120 minutes. The Alpha screen signal (indicative of intracellular cAMP levels) is read in a suitable instrument (e.g. AlphaQuest from Perkin-Elmer). Steps including Alpha screen donor and acceptor beads are performed in reduced light. The EC50 for cAMP generation is calculated from the raw signal or is based on absolute cAMP levels as determined by a standard curve performed on each plate.
Results for each agonist are, at minimum, from two analyses performed in a single run. For some agonists, the results are the mean of more than one run. The tested peptide concentrations are: 10000, 1000, 100, 10, 3, 1, 0.1, 0.01, 0.003, 0.001, 0.0001 and 0.00001 nM.

The next series concerns the target T4, human PAC1 (Homo sapiens, UniProt P41586).
T4 construct: expressed in transfected cells
T4 sequence (P41586 21-468): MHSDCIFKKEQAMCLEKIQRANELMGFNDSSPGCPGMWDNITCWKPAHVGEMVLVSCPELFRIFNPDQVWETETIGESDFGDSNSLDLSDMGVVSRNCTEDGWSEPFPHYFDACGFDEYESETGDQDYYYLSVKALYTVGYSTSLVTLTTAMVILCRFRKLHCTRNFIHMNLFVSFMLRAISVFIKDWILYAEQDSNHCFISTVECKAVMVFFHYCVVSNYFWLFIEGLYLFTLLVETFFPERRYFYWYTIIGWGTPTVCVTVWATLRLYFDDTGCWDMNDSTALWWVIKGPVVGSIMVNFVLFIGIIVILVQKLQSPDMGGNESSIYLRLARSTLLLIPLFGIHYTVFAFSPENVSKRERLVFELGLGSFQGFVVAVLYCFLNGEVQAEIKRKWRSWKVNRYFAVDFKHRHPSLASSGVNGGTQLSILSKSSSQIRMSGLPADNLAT
Briefly: Filter binding assay, 125I-labeled PACAP-27 tracer, PAC1 membranes. As to conditions: read-out: Human PAC1 Receptor Binding (IC50; nM).

For series [3], the target named is T3, human VPAC2. Briefly: Filter binding assay, 125I-labeled VIP tracer, VPAC2 membranes. As to conditions: read-out: Human VPAC2 Receptor Binding (IC50; nM).
Description: (§1) For this assay, the solutions and equipment include:
(§2) Presoak solution: 0.5% Polyethyleneamine in Aqua dest
(§3) Buffer for flushing filter plates: 25 mM HEPES pH 7.4
(§4) Blocking buffer: 25 mM HEPES pH 7.4; 0.2% protease free BSA
(§5) Assay buffer: 25 mM HEPES pH 7.4; 0.5% protease free BSA
(§6) Dilution and assay plate: PS-Microplate, U form
(§7) Filtration Plate: Multiscreen FB Opaque Plate; 1.0 μM Type B Glasfiber filter
(§8) In order to prepare the filter plates, the presoak solution is aspirated by vacuum filtration. The plates are flushed twice with 200 μL flush buffer. 200 μL blocking buffer is added to the filter plate. The filter plate is then incubated with 200 μL presoak solution for 1 hour at room temperature.
(§9) The assay plate is filled with 25 μL assay buffer, 25 μL membranes (2.5 μg) suspended in assay buffer, 25 μL compound (agonist) in assay buffer, and 25 μL tracer (about 40000 cpm) in assay buffer. The filled plate is incubated for 1 hour with shaking.
(§10) The transfer from assay plate to filter plate is conducted. The blocking buffer is aspirated by vacuum filtration and washed two times with flush buffer. 90 μL is transferred from the assay plate to the filter plate. The 90 μL transferred from assay plate is aspirated and washed three times with 200 μL flush buffer. The plastic support is removed. It is dried for 1 hour at 60° C. 30 μL Microscint is added. The count is performed.

Square brackets hold non-standard residues; d marks the D form. Peptide text beside a SMILES is read from it. * marks the point of attachment. Orn = NCCC[C@H](N)C(=O)O; Hexanoyl = CCCCCC(=O)*; Aib = CC(C)(N)C(=O)O Some results are limits rather than exact numbers.

Description for human PAC1: as §1, §2, §3, §4, §5, §6, §7, §8, §9, §10

The EC50 is the midpoint of the concentration-response curve. A lower EC50 goes with higher potency in that assay. One may read the IC50 as the point on the concentration scale where inhibition reaches its midpoint. On to `CCCCCC(=O)N[C@@H](Cc1c[nH]cn1)C(=O)N[C@@H](CO)C(=O)N[C@@H](CC(=O)O)C(=O)N[C@@H](C)C(=O)N[C@H](C(=O)N[C@@H](Cc1ccccc1)C(=O)N[C@H](C(=O)N[C@@H](CC(=O)O)C(=O)N[C@@H](CCC(N)=O)C(=O)N[C@@H](Cc1ccc(O)cc1)C(=O)N[C@H](C(=O)N[C@@H](CCCN)C(=O)N[C@@H](CC(C)C)C(=O)N[C@@H](CCCNC(=N)N)C(=O)NC(C)(C)C(=O)N[C@@H](CCC(N)=O)C(=O)N[C@H](C(=O)N[C@@H](C)C(=O)N[C@@H](C)C(=O)NC(C)(C)C(=O)N[C@@H](CCCCN)C(=O)N[C@@H](Cc1ccc(O)cc1)C(=O)N[C@@H](CC(C)C)C(=O)N[C@@H](CCC(N)=O)C(=O)N[C@@H](CO)C(=O)N[C@H](C(=O)N[C@@H](CCCN)C(=O)N[C@@H](CCC(N)=O)C(=O)N[C@@H](CCCN)C(=O)NCC(=O)NCC(=O)N1CCC[C@H]1C(=O)N[C@@H](CO)C(=O)N[C@@H](CO)C(=O)NCC(=O)N[C@@H](C)C(=O)N1CCC[C@H]1C(=O)N1CCC[C@H]1C(=O)N1CCC[C@H]1C(=O)N[C@@H](CO)C(=O)O)[C@@H](C)CC)C(C)C)[C@@H](C)O)[C@@H](C)O)C(C)C` [Agonist P363] (Hexanoyl-HSDAVFTDQYT[Orn]LR[Aib]QVAA[Aib]KYLQSI[Orn]Q[Orn]GGPSSGAPPPS-OH; C-terminus assumed), for which the EC50 on rat VPAC2 receptor came out at 0.09 nM; on human VPAC2 [2], 0.27 nM. Further, the IC50 was above 3000 nM on human VPAC1 and above 25000 nM on human PAC1. Besides, the “Rat Serum Stability (estimated purity in % after overnight incub.)” value in series [1] was 81.66%.
`CCCCCC(=O)N[C@@H](Cc1c[nH]cn1)C(=O)N[C@@H](CO)C(=O)N[C@@H](CC(=O)O)C(=O)N[C@@H](C)C(=O)N[C@H](C(=O)N[C@@H](Cc1ccccc1)C(=O)N[C@H](C(=O)N[C@@H](CC(=O)O)C(=O)N[C@@H](CC(N)=O)C(=O)N[C@@H](Cc1ccc(O)cc1)C(=O)N[C@H](C(=O)N[C@@H](CC(C)C)C(=O)N[C@@H](CC(C)C)C(=O)N[C@@H](CCCNC(=N)N)C(=O)NC(C)(C)C(=O)N[C@@H](CCC(N)=O)C(=O)N[C@H](C(=O)N[C@@H](C)C(=O)N[C@@H](C)C(=O)NC(C)(C)C(=O)N[C@@H](CCCCN)C(=O)N[C@@H](Cc1ccc(O)cc1)C(=O)N[C@@H](CC(C)C)C(=O)N[C@@H](CCC(N)=O)C(=O)N[C@@H](CO)C(=O)N[C@H](C(=O)N[C@@H](CCCN)C(=O)N[C@@H](CC(N)=O)C(=O)N[C@@H](CCCN)C(=O)NCC(=O)NCC(=O)N1CCC[C@H]1C(=O)N[C@@H](CO)C(=O)N[C@@H](CO)C(=O)NCC(=O)N[C@@H](C)C(=O)N1CCC[C@H]1C(=O)N1CCC[C@H]1C(=O)N1CCC[C@H]1C(=O)N[C@@H](CO)C(=O)O)[C@@H](C)CC)C(C)C)[C@@H](C)O)[C@@H](C)O)C(C)C` [Agonist P367] (Hexanoyl-HSDAVFTDNYTLLR[Aib]QVAA[Aib]KYLQSI[Orn]N[Orn]GGPSSGAPPPS-OH; C-terminus assumed): the IC50 is above 100 nM at human VPAC2 [3], above 3000 nM on human VPAC1 and above 25000 nM at human PAC1. Also, the “Rat Serum Stability (estimated purity in % after overnight incub.)” value in series [1] is on record as 55.82%.
As for `CCCCCC(=O)N[C@@H](Cc1c[nH]cn1)C(=O)N[C@@H](CO)C(=O)N[C@@H](CC(=O)O)C(=O)N[C@@H](C)C(=O)N[C@H](C(=O)N[C@@H](Cc1ccccc1)C(=O)N[C@H](C(=O)N[C@@H](CC(=O)O)C(=O)N[C@@H](CC(N)=O)C(=O)N[C@@H](Cc1ccc(O)cc1)C(=O)N[C@H](C(=O)N[C@@H](CCCNC(=N)N)C(=O)N[C@@H](CC(C)C)C(=O)N[C@@H](CC(C)C)C(=O)N[C@@H](C)C(=O)N[C@@H](CCCCN)C(=O)N[C@@H](CC(C)C)C(=O)N[C@@H](C)C(=O)N[C@@H](CC(C)C)C(=O)N[C@@H](CCC(N)=O)C(=O)N[C@@H](CCCCN)C(=O)N[C@@H](Cc1ccc(O)cc1)C(=O)N[C@@H](CC(C)C)C(=O)N[C@@H](CCC(N)=O)C(=O)N[C@@H](CO)C(=O)N[C@H](C(=O)N[C@@H](CCCN)C(=O)N[C@@H](CC(N)=O)C(=O)N[C@@H](CCCN)C(=O)NCC(=O)NCC(=O)N1CCC[C@H]1C(=O)N[C@@H](CO)C(=O)N[C@@H](CO)C(=O)NCC(=O)N[C@@H](C)C(=O)N1CCC[C@H]1C(=O)N1CCC[C@H]1C(=O)N1CCC[C@H]1C(=O)N[C@@H](CO)C(=O)O)[C@@H](C)CC)[C@@H](C)O)[C@@H](C)O)C(C)C` [Agonist P370] (Hexanoyl-HSDAVFTDNYTRLLAKLALQKYLQSI[Orn]N[Orn]GGPSSGAPPPS-OH; C-terminus assumed), the EC50 was 0.05 nM at rat VPAC2 receptor and 0.23 nM on human VPAC2 [2]. Moreover, the IC50 on human VPAC1 was above 3000 nM; at human PAC1 it was above 25000 nM. Further, the “Rat Serum Stability (estimated purity in % after overnight incub.)” value in series [1] is listed as 41.82%.
For `CCCCCC(=O)N[C@@H](Cc1c[nH]cn1)C(=O)N[C@@H](CO)C(=O)N[C@@H](CC(=O)O)C(=O)N[C@@H](C)C(=O)N[C@H](C(=O)N[C@@H](Cc1ccccc1)C(=O)N[C@H](C(=O)N[C@@H](CC(=O)O)C(=O)N[C@@H](CC(N)=O)C(=O)N[C@@H](Cc1ccc(O)cc1)C(=O)N[C@H](C(=O)N[C@@H](CCCN)C(=O)N[C@@H](CC(C)C)C(=O)N[C@@H](CCCNC(=N)N)C(=O)NC(C)(C)C(=O)N[C@@H](CCC(N)=O)C(=O)N[C@H](C(=O)N[C@@H](C)C(=O)N[C@@H](C)C(=O)NC(C)(C)C(=O)N[C@@H](CCCCN)C(=O)N[C@@H](Cc1ccc(O)cc1)C(=O)N[C@@H](CC(C)C)C(=O)N[C@@H](CO)C(=O)N[C@@H](CO)C(=O)N[C@H](C(=O)N[C@@H](CCCN)C(=O)N[C@@H](CC(N)=O)C(=O)N[C@@H](CCCN)C(=O)NCC(=O)NCC(=O)N1CCC[C@H]1C(=O)N[C@@H](CO)C(=O)N[C@@H](CO)C(=O)NCC(=O)N[C@@H](C)C(=O)N1CCC[C@H]1C(=O)N1CCC[C@H]1C(=O)N1CCC[C@H]1C(=O)N[C@@H](CO)C(=O)O)[C@@H](C)CC)C(C)C)[C@@H](C)O)[C@@H](C)O)C(C)C` [Agonist P383] (Hexanoyl-HSDAVFTDNYT[Orn]LR[Aib]QVAA[Aib]KYLSSI[Orn]N[Orn]GGPSSGAPPPS-OH; C-terminus assumed), the 50% effective concentration (EC50) at rat VPAC2 receptor worked out at 0.18 nM; on human VPAC2 [2], 0.12 nM. Besides, the results for the concentration for half-maximal inhibition (IC50) at human VPAC1 and at human PAC1 were above 3000 nM and above 25000 nM, respectively. Besides, the “Rat Serum Stability (estimated purity in % after overnight incub.)” value in series [1] is given as 113.66%.
